{"source": "ChEMBL document CHEMBL3885881", "about": "“DrugMatrix”", "species": "Rattus norvegicus", "assay": "DrugMatrix - Regimen: Daily Repeat", "format": "toxicity, organism-based, Sprague-Dawley", "design": "regimen Daily Repeat, gender Male, age 6-8 weeks", "conditions": "in vivo, po, route oral GAVAGE, dose level High, vehicle 100 % WATER; for BASOPHIL / EOSINOPHIL / ERYTHROCYTE COUNT / HEMATOCRIT / HEMOGLOBIN / LEUKOCYTE COUNT / LYMPHOCYTE / MEAN CORPUSCULAR HEMOGLOBIN / MEAN CORPUSCULAR HEMOGLOBIN CONCENTRATION / MEAN CORPUSCULAR VOLUME / MONOCYTE / NEUTROPHIL / PLATELET COUNT / ABSOLUTE BASOPHIL / ABSOLUTE EOSINOPHIL / ABSOLUTE LYMPHOCYTE / ABSOLUTE MONOCYTE: tissue Blood; for ALANINE AMINOTRANSFERASE / ALBUMIN / ALKALINE PHOSPHATASE / ASPARTATE AMINOTRANSFERASE / BLOOD UREA NITROGEN / CARBON DIOXIDE / CHLORIDE / CHOLESTEROL / CREATINE PHOSPHOKINASE / CREATININE / GLUCOSE / LACTATE DEHYDROGENASE / LIPASE / PHOSPHORUS / POTASSIUM / SODIUM / TOTAL BILIRUBIN / TOTAL PROTEIN / URIC ACID: tissue Plasma"}
{"smiles": "COCCc1ccc(OCC(O)CNC(C)C)cc1", "note": "(configuration not stated) [METOPROLOL]", "values": [{"measurement": "BASOPHIL", "setting": "120 mg/kg, 120 h, time 5 day", "value": 0.67, "unit": "%"}, {"measurement": "EOSINOPHIL", "setting": "120 mg/kg, 120 h, time 5 day", "value": 4.2, "unit": "%"}, {"measurement": "ERYTHROCYTE COUNT", "setting": "120 mg/kg, 120 h, time 5 day", "value": 7.04, "unit": "x10E6/uL"}, {"measurement": "HEMATOCRIT", "setting": "120 mg/kg, 120 h, time 5 day", "value": 45.37, "unit": "%"}, {"measurement": "HEMOGLOBIN", "setting": "120 mg/kg, 120 h, time 5 day", "value": 14.97, "unit": "G/DL"}, {"measurement": "LEUKOCYTE COUNT", "setting": "120 mg/kg, 120 h, time 5 day", "value": 9.83, "unit": "x10E3/uL"}, {"measurement": "LYMPHOCYTE", "setting": "120 mg/kg, 120 h, time 5 day", "value": 70.57, "unit": "%"}, {"measurement": "MEAN CORPUSCULAR HEMOGLOBIN", "setting": "120 mg/kg, 120 h, time 5 day", "value": 21.3, "unit": "pg"}, {"measurement": "MEAN CORPUSCULAR HEMOGLOBIN CONCENTRATION", "setting": "120 mg/kg, 120 h, time 5 day", "value": 33, "unit": "G/DL"}, {"measurement": "MEAN CORPUSCULAR VOLUME", "setting": "120 mg/kg, 120 h, time 5 day", "value": 64.57, "unit": "fL"}, {"measurement": "MONOCYTE", "setting": "120 mg/kg, 120 h, time 5 day", "value": 2.6, "unit": "%"}, {"measurement": "NEUTROPHIL", "setting": "120 mg/kg, 120 h, time 5 day", "value": 21.47, "unit": "%"}, {"measurement": "PLATELET COUNT", "setting": "120 mg/kg, 120 h, time 5 day", "value": 1018.67, "unit": "x10E3/uL"}, {"measurement": "ALANINE AMINOTRANSFERASE", "setting": "120 mg/kg, 120 h, time 5 day", "value": 28.67, "unit": "u/L"}, {"measurement": "ALBUMIN", "setting": "120 mg/kg, 120 h, time 5 day", "value": 3.9, "unit": "G/DL"}, {"measurement": "ALKALINE PHOSPHATASE", "setting": "120 mg/kg, 120 h, time 5 day", "value": 427.33, "unit": "u/L"}, {"measurement": "ASPARTATE AMINOTRANSFERASE", "setting": "120 mg/kg, 120 h, time 5 day", "value": 68.67, "unit": "u/L"}, {"measurement": "BLOOD UREA NITROGEN", "setting": "120 mg/kg, 120 h, time 5 day", "value": 16.33, "unit": "mg/dL"}, {"measurement": "CARBON DIOXIDE", "setting": "120 mg/kg, 120 h, time 5 day", "value": 38.33, "unit": "mmol/L"}, {"measurement": "CHLORIDE", "setting": "120 mg/kg, 120 h, time 5 day", "value": 106.67, "unit": "MEQ/L"}, {"measurement": "CHOLESTEROL", "setting": "120 mg/kg, 120 h, time 5 day", "value": 62.33, "unit": "mg/dL"}, {"measurement": "CREATINE PHOSPHOKINASE", "setting": "120 mg/kg, 120 h, time 5 day", "value": 168, "unit": "u/L"}, {"measurement": "CREATININE", "setting": "120 mg/kg, 120 h, time 5 day", "value": 0.4, "unit": "mg/dL"}, {"measurement": "GLUCOSE", "setting": "120 mg/kg, 120 h, time 5 day", "value": 168, "unit": "mg/dL"}, {"measurement": "LACTATE DEHYDROGENASE", "setting": "120 mg/kg, 120 h, time 5 day", "value": 97, "unit": "u/L"}, {"measurement": "LIPASE", "setting": "120 mg/kg, 120 h, time 5 day", "value": 14, "unit": "u/L"}, {"measurement": "PHOSPHORUS", "setting": "120 mg/kg, 120 h, time 5 day", "value": 11.37, "unit": "mg/dL"}, {"measurement": "POTASSIUM", "setting": "120 mg/kg, 120 h, time 5 day", "value": 6.67, "unit": "MEQ/L"}, {"measurement": "SODIUM", "setting": "120 mg/kg, 120 h, time 5 day", "value": 147.67, "unit": "MEQ/L"}, {"measurement": "TOTAL BILIRUBIN", "setting": "120 mg/kg, 120 h, time 5 day", "value": 0.47, "unit": "mg/dL"}, {"measurement": "TOTAL PROTEIN", "setting": "120 mg/kg, 120 h, time 5 day", "value": 6.33, "unit": "G/DL"}, {"measurement": "URIC ACID", "setting": "120 mg/kg, 120 h, time 5 day", "value": 1.27, "unit": "mg/dL"}, {"measurement": "ABSOLUTE BASOPHIL", "setting": "120 mg/kg, […], time 14 day", "value": 90, "unit": "cells/µL"}, {"measurement": "ABSOLUTE EOSINOPHIL", "setting": "120 mg/kg, […], time 14 day", "value": 60, "unit": "cells/µL"}, {"measurement": "ABSOLUTE LYMPHOCYTE", "setting": "120 mg/kg, […], time 14 day", "value": 10900, "unit": "cells/µL"}, {"measurement": "ABSOLUTE MONOCYTE", "setting": "120 mg/kg, […], time 14 day", "value": 270, "unit": "cells/µL"}, {"measurement": "BASOPHIL", "setting": "120 mg/kg, […], time 14 day", "value": 0.67, "unit": "%"}, {"measurement": "EOSINOPHIL", "setting": "120 mg/kg, […], time 14 day", "value": 0.43, "unit": "%"}, {"measurement": "ERYTHROCYTE COUNT", "setting": "120 mg/kg, […], time 14 day", "value": 6.79, "unit": "x10E6/uL"}, {"measurement": "HEMATOCRIT", "setting": "120 mg/kg, […], time 14 day", "value": 41.53, "unit": "%"}, {"measurement": "HEMOGLOBIN", "setting": "120 mg/kg, […], time 14 day", "value": 14.17, "unit": "G/DL"}, {"measurement": "LEUKOCYTE COUNT", "setting": "120 mg/kg, […], time 14 day", "value": 13.77, "unit": "x10E3/uL"}, {"measurement": "LYMPHOCYTE", "setting": "120 mg/kg, […], time 14 day", "value": 78.87, "unit": "%"}, {"measurement": "MEAN CORPUSCULAR HEMOGLOBIN", "setting": "120 mg/kg, […], time 14 day", "value": 20.87, "unit": "pg"}, {"measurement": "MEAN CORPUSCULAR HEMOGLOBIN CONCENTRATION", "setting": "120 mg/kg, […], time 14 day", "value": 34.13, "unit": "G/DL"}, {"measurement": "MEAN CORPUSCULAR VOLUME", "setting": "120 mg/kg, […], time 14 day", "value": 61.17, "unit": "fL"}, {"measurement": "MONOCYTE", "setting": "120 mg/kg, […], time 14 day", "value": 1.33, "unit": "%"}, {"measurement": "NEUTROPHIL", "setting": "120 mg/kg, […], time 14 day", "value": 17.47, "unit": "%"}, {"measurement": "PLATELET COUNT", "setting": "120 mg/kg, […], time 14 day", "value": 1228.67, "unit": "x10E3/uL"}, {"measurement": "ALANINE AMINOTRANSFERASE", "setting": "120 mg/kg, […], time 14 day", "value": 37, "unit": "u/L"}, {"measurement": "ALBUMIN", "setting": "120 mg/kg, […], time 14 day", "value": 3.63, "unit": "G/DL"}, {"measurement": "ALKALINE PHOSPHATASE", "setting": "120 mg/kg, […], time 14 day", "value": 379.33, "unit": "u/L"}, {"measurement": "ASPARTATE AMINOTRANSFERASE", "setting": "120 mg/kg, […], time 14 day", "value": 68.67, "unit": "u/L"}, {"measurement": "BLOOD UREA NITROGEN", "setting": "120 mg/kg, […], time 14 day", "value": 17.67, "unit": "mg/dL"}, {"measurement": "CARBON DIOXIDE", "setting": "120 mg/kg, […], time 14 day", "value": 40.67, "unit": "mmol/L"}, {"measurement": "CHLORIDE", "setting": "120 mg/kg, […], time 14 day", "value": 107.33, "unit": "MEQ/L"}, {"measurement": "CHOLESTEROL", "setting": "120 mg/kg, […], time 14 day", "value": 51, "unit": "mg/dL"}, {"measurement": "CREATINE PHOSPHOKINASE", "setting": "120 mg/kg, […], time 14 day", "value": 304.67, "unit": "u/L"}, {"measurement": "CREATININE", "setting": "120 mg/kg, […], time 14 day", "value": 0.37, "unit": "mg/dL"}, {"measurement": "GLUCOSE", "setting": "120 mg/kg, […], time 14 day", "value": 183.33, "unit": "mg/dL"}, {"measurement": "LACTATE DEHYDROGENASE", "setting": "120 mg/kg, […], time 14 day", "value": 123.33, "unit": "u/L"}, {"measurement": "LIPASE", "setting": "120 mg/kg, […], time 14 day", "value": 10.67, "unit": "u/L"}, {"measurement": "PHOSPHORUS", "setting": "120 mg/kg, […], time 14 day", "value": 9.23, "unit": "mg/dL"}, {"measurement": "POTASSIUM", "setting": "120 mg/kg, […], time 14 day", "value": 6.17, "unit": "MEQ/L"}, {"measurement": "SODIUM", "setting": "120 mg/kg, […], time 14 day", "value": 144, "unit": "MEQ/L"}, {"measurement": "TOTAL BILIRUBIN", "setting": "120 mg/kg, […], time 14 day", "value": 0.4, "unit": "mg/dL"}, {"measurement": "TOTAL PROTEIN", "setting": "120 mg/kg, […], time 14 day", "value": 5.9, "unit": "G/DL"}, {"measurement": "URIC ACID", "setting": "120 mg/kg, […], time 14 day", "value": 0.17, "unit": "mg/dL"}, {"measurement": "ABSOLUTE BASOPHIL", "setting": "1200 mg/kg, 72 h, time 3 day", "value": 0, "unit": "CELLS/uL"}, {"measurement": "ABSOLUTE EOSINOPHIL", "setting": "1200 mg/kg, 72 h, time 3 day", "value": 286.33, "unit": "CELLS/uL"}, {"measurement": "ABSOLUTE LYMPHOCYTE", "setting": "1200 mg/kg, 72 h, time 3 day", "value": 11270.67, "unit": "CELLS/uL"}, {"measurement": "ABSOLUTE MONOCYTE", "setting": "1200 mg/kg, 72 h, time 3 day", "value": 0, "unit": "CELLS/uL"}]}
